Key:
PTP-1B = target: T1, PTP-1B (Homo sapiens, UniProt P18031); assay: Inhibition of binding PTP-1B with IR (protein chip, anti-IR phosphorylation antibody); format: biochemical; settings: mean±SD, n=6
T1 sequence (P18031 1-435): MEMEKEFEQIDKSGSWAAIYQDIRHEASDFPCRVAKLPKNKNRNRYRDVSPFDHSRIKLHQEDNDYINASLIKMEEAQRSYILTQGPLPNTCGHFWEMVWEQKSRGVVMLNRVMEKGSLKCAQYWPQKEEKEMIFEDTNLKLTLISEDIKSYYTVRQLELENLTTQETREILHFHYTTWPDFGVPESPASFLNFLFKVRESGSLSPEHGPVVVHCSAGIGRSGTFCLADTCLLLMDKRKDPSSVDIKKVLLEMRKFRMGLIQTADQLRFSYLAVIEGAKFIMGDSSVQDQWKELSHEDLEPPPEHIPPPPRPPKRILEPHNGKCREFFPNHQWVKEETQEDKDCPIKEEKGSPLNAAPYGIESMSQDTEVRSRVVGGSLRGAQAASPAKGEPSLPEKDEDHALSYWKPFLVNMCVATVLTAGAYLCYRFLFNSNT
Protocol: IR molecules stood for 1 hour at 30° C. to induce phosphorylation, and each 1 μl of IR molecules were fixed with protein chips(PeproTech) at 4° C. The protein chips were washed with washing buffer for 10 minutes, and blocked with blocking buffer(3% BSA in PBS, pH 7.4) at room temperature for 1 hour followed by washing with washing buffer. Each sample was as follow:
0. Blank control(C), 0.5 μl PEG (10%, polyethylene glycol)+0.5 μl PTP-1B buffer;
1. Negative control(N), 0.5 μl PEG (10%)+0.5 μl PTP-1B;
2. Positive control(P), 0.5 μl Na3VO4(sodium orthovanadate; 1 mM, pH 10)+0.5 μl PTP-1B;
3. Experimental group(ZA), 0.5 μl ZA (5 μM)+0.5 μl PTP-1B
The protein chips were washed for 10 minutes, and each was treated with 1 μl of anti-IR phosphorylation antibodies diluted by dilution buffer in 1/100 followed by incubating for 1 hour at 30° C. And then, it was washed with washing buffer for 10 minutes, and each was treated with […] of Cy5-fluorescent coupled rabbit anti-IgG antibodies diluted by dilution buffer in 1/100 followed by incubating for 1 hour at 30° C. They were washed for 10 minutes, scanned by microarray scanner system to analyze to GraphPad Prism 4 software.
The results are presented as the mean±SD(%). Statistical analysis was performed using Student's t-test, and P<0.05 was considered as a significance (n=6).

Rat pancreatic islets = assay: Insulin secretion level by hyperglycemia stimulation in primary pancreatic islets; format: cell-based, Sprague Dawley rats; settings: 5 μM ZA for 3 days, mean±SD of five experiments
Protocol: Rat pancreatic islets were isolated from Sprague Dawley rats (200˜230 g) by digesting the pancreatic duct with collagenase P (1 mg/ml in PBS). After digestion, the islets were separated with Histopaque-1077 (Sigma, St. Louis, Mo.). The primary islets were cultured in RPMI 1640 medium containing 10% fetal bovine serum (FBS), penicillin (100 IU/ml) and streptomycin (100 g/ml). Equal number of primary islet clusters was transferred into micro-centrifuge tube with 1 ml of 10% RPMI 1640, and incubated under normal (5.5 mM glucose) and glucotoxic conditions with or without Zoledronic acid (5 μM) for 3 days. Exposure to glucotoxic conditions was followed by treating with 0.6 mM free fatty acid (FFA; palmitate/oleate, 2:1) and 25 mM glucose in RPMI 1640 with 10% FBS. FFA were complexed with 5% fatty acid-free BSA in PBS. Cultured islets were washed in Krebs-Ringer-bicarbonate (KRB) buffer (130 mM NaCl, 3.6 mM KCl, 1.5 mM CaCl2, 0.5 mM MgSO4, 0.5 mM KH2PO4. 2.0 mM NaHCO2 and 10 mM HEPES) and incubated in KRB buffer for 1 hour followed by further incubation in KRB buffer containing 5.5 mM glucose for 1 hour. Samples were centrifuged at 12,000 g for 1 min and the supernatant was collected for measurement. […] Insulin concentrations from two supernatants removed at two different conditions were measured with a RIA kit (Linco) The results are presented as the mean±SD of five independent experiments. […]

Row | inhibition effect of binding PTP-1B with IR (PTP-1B; positive control, Na3VO4 1 mM, pH 10) | inhibition at 5 µM (PTP-1B; ZA 5 μM, read-out: inhibition effect of binding PTP-1B with IR) | Structure (SMILES) | insulin secretion level (Rat pancreatic islets; diabetes mellitus condition (25 mM glucose, glucotoxic), untreated reduced to 52±19% compared to normal condition) | insulin secretion level (Rat pancreatic islets; normal condition (5.5 mM glucose), untreated = 100±17%)
1 | 87±4% |  | [Na+].[Na+].[Na+].[O]=[V]([O-])([O-])[O-] [Na3VO4, sodium orthovanadate] |  | 
2 |  | 89 ± 21% | O=P(O)(O)C(O)(Cn1ccnc1)P(=O)(O)O [ZA, [1-hydroxy-2-(1H-imidazol-1-yl)ethane-1,1-diyl]bis(phosphonic acid)] | 72±34% | 82±43%
